pIC50: −log10 of the molar value.
Tested on: 439559-082-T-J2-PDC spheroid viability
Assay: Anticancer human tumor 439559-082-T-J2-PDC patient-derived colon adenocarcinoma cell line growth inhibition [POLQ]
Details: spheroids with HUVEC and MSC; for pIC50: curve of first compound; for viability, T/C: stronger effect = lower value
Procedure, shortened: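 Complex spheroid viability model combining PDC tumour cells with endothelial (HUVEC) and MSC stromal cells. Novobiocin, ART-558 or RP6685 were tested singly and in combination with standard and investigational anticancer drugs. Each was titrated in half-log steps from near clinical Cmax, or from 10 microM where Cmax was unknown.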

[1] = second compound 0.0316 µM, first compound 0.0316 µM
[2] = second compound 0.0316 µM, first compound 0.1 µM
[3] = second compound 0.0316 µM, first compound 0.316 µM
[4] = second compound 0.0316 µM, first compound 1 µM
[5] = second compound 0.0316 µM, first compound 3.16 µM
[6] = second compound 0.0316 µM, first compound 10 µM
[7] = second compound 0.1 µM, first compound 0.0316 µM
[8] = second compound 0.1 µM, first compound 0.1 µM
[9] = second compound 0.1 µM, first compound 0.316 µM
[10] = second compound 0.1 µM, first compound 1 µM
[11] = second compound 0.1 µM, first compound 3.16 µM
[12] = second compound 0.1 µM, first compound 10 µM
[13] = second compound 0.316 µM, first compound 0.0316 µM
[14] = second compound 0.316 µM, first compound 0.1 µM
[15] = second compound 0.316 µM, first compound 0.316 µM
[16] = second compound 0.316 µM, first compound 1 µM
[17] = second compound 0.316 µM, first compound 3.16 µM
[18] = second compound 0.316 µM, first compound 10 µM
[19] = second compound 1 µM, first compound 0.0316 µM
[20] = second compound 1 µM, first compound 0.1 µM
[21] = second compound 1 µM, first compound 0.316 µM
[22] = second compound 1 µM, first compound 1 µM
[23] = second compound 1 µM, first compound 3.16 µM
[24] = second compound 1 µM, first compound 10 µM
[25] = second compound 3.16 µM, first compound 0.0316 µM
[26] = second compound 3.16 µM, first compound 0.1 µM
[27] = second compound 3.16 µM, first compound 0.316 µM
[28] = second compound 3.16 µM, first compound 1 µM
[29] = second compound 3.16 µM, first compound 3.16 µM
[30] = second compound 3.16 µM, first compound 10 µM
[31] = second compound 10 µM, first compound 0.0316 µM
[32] = second compound 10 µM, first compound 0.1 µM
[33] = second compound 10 µM, first compound 0.316 µM
[34] = second compound 10 µM, first compound 1 µM
[35] = second compound 10 µM, first compound 3.16 µM
[36] = second compound 10 µM, first compound 10 µM
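Further: spheroids exposed to compounds for seven days before readout.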
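Wherever viability, T/C is given: 100% = DMSO vehicle control viability.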

For C=CC(=O)N1CCN(c2nc(=O)n(-c3c(C)ccnc3C(C)C)c3nc(-c4c(O)cccc4F)c(F)cc23)C(C)C1 (stereo not drawn) + Cc1cccc(N(C)C(=O)C2C(O)CCN2c2nc(C)cc(C(F)(F)F)c2C#N)c1, the pIC50 (second compound 0.0316 µM) was < 5.00, the pIC50 (second compound 0.1 µM) was < 5.00 and the pIC50 (second compound 0.316 µM) was < 5.00. For the same compound, the pIC50 (second compound 1 µM) was < 5.00, the pIC50 (second compound 3.16 µM) was < 5.00 and the pIC50 (second compound 10 µM) was < 5.00. For the same compound, the viability, T/C [1] was 101%, the viability, T/C [2] was 93.8% and the viability, T/C [3] was 95.7%. It also gave a viability, T/C [4] of 108%, a viability, T/C [5] of 103% and a viability, T/C [6] of 94.9%. For the same compound, the viability, T/C [7] was 101%, the viability, T/C [8] was 103% and the viability, T/C [9] was 97%. For the same compound, the viability, T/C [10] was 99.4%, the viability, T/C [11] was 107% and the viability, T/C [12] was 100%. It also gave a viability, T/C [13] of 92.7%, a viability, T/C [14] of 96.9% and a viability, T/C [15] of 98%. The viability, T/C [16] was 94.9%, the viability, T/C [17] was 96% and the viability, T/C [18] was 96.5%. The viability, T/C [19] was 107%, the viability, T/C [20] was 97.8% and the viability, T/C [21] was 96.5%. It also gave a viability, T/C [22] of 96.5%, a viability, T/C [23] of 96% and a viability, T/C [24] of 98%. The viability, T/C [25] was 101%, the viability, T/C [26] was 96.6% and the viability, T/C [27] was 92.4%. The viability, T/C [28] was 95.6%, the viability, T/C [29] was 96.9% and the viability, T/C [30] was 101%. The viability, T/C [31] was 98.2%, the viability, T/C [32] was 93.8% and the viability, T/C [33] was 88%. It also gave a viability, T/C [34] of 83.6%, a viability, T/C [35] of 97.1% and a viability, T/C [36] of 90.2%.
With COc1cccc2c1C(=O)c1c(O)c3c(c(O)c1C2=O)CC(O)(C(=O)CO)CC3OC1CC(N)C(O)C(C)O1 (stereo not drawn) + Cc1cccc(N(C)C(=O)C2C(O)CCN2c2nc(C)cc(C(F)(F)F)c2C#N)c1 the pIC50 (second compound 0.0316 µM) was < 5.00, the pIC50 (second compound 0.1 µM) was < 5.00 and the pIC50 (second compound 0.316 µM) was < 5.00. The pIC50 (second compound 1 µM) was 5.04, the pIC50 (second compound 3.16 µM) was 5.01 and the pIC50 (second compound 10 µM) was < 5.00. The viability, T/C [1] was 99%, the viability, T/C [2] was 87.9% and the viability, T/C [3] was 79.6%. For the same compound, the viability, T/C [4] was 70.5%, the viability, T/C [5] was 60.8% and the viability, T/C [6] was 53.2%. It also gave a viability, T/C [7] of 96.2%, a viability, T/C [8] of 92.5% and a viability, T/C [9] of 80.7%. The viability, T/C [10] was 70.2%, the viability, T/C [11] was 62.9% and the viability, T/C [12] was 52.8%. It also gave a viability, T/C [13] of 95.2%, a viability, T/C [14] of 94.4% and a viability, T/C [15] of 79.4%. For the same compound, the viability, T/C [16] was 68.2%, the viability, T/C [17] was 63% and the viability, T/C [18] was 51.7%. The viability, T/C [19] was 100%, the viability, T/C [20] was 97.9% and the viability, T/C [21] was 79.6%. It also gave a viability, T/C [22] of 70.1%, a viability, T/C [23] of 62.8% and a viability, T/C [24] of 48.2%. It also gave a viability, T/C [25] of 96.7%, a viability, T/C [26] of 86.1% and a viability, T/C [27] of 81.2%. For the same compound, the viability, T/C [28] was 70%, the viability, T/C [29] was 56.3% and the viability, T/C [30] was 50.6%. The viability, T/C [31] was 96.2%, the viability, T/C [32] was 81.4% and the viability, T/C [33] was 80.1%. For the same compound, the viability, T/C [34] was 68.2%, the viability, T/C [35] was 63.9% and the viability, T/C [36] was 48.8%.
For C=CCn1c(=O)c2cnc(Nc3ccc(N4CCN(C)CC4)cc3)nc2n1-c1cccc(C(C)(C)O)n1 + Nc1ccc(C#CCN(C(=O)Cc2ncc(C(F)(F)F)cc2C(F)(F)F)c2ccc(F)cc2)nn1, the pIC50 (second compound 0.0316 µM) was < 6.00, the pIC50 (second compound 0.1 µM) was < 6.00 and the pIC50 (second compound 0.316 µM) was < 6.00. The pIC50 (second compound 1 µM) was < 6.00, the pIC50 (second compound 3.16 µM) was < 6.00 and the pIC50 (second compound 10 µM) was < 6.00. For the same compound, the viability, T/C (second compound 0.0316 µM, first compound 0.00316 µM) was 111%, the viability, T/C (second compound 0.0316 µM, first compound 0.01 µM) was 109% and the viability, T/C [1] was 109%. For the same compound, the viability, T/C [2] was 105%, the viability, T/C [3] was 97.5% and the viability, T/C [4] was 84.7%. The viability, T/C (second compound 0.1 µM, first compound 0.00316 µM) was 108%, the viability, T/C (second compound 0.1 µM, first compound 0.01 µM) was 94.4% and the viability, T/C [7] was 100%. It also gave a viability, T/C [8] of 95.5%, a viability, T/C [9] of 97.9% and a viability, T/C [10] of 78.6%. It also gave a viability, T/C (second compound 0.316 µM, first compound 0.00316 µM) of 108%, a viability, T/C (second compound 0.316 µM, first compound 0.01 µM) of 115% and a viability, T/C [13] of 97.3%. It also gave a viability, T/C [14] of 99.1%, a viability, T/C [15] of 97.5% and a viability, T/C [16] of 84%. The viability, T/C (second compound 1 µM, first compound 0.00316 µM) was 105%, the viability, T/C (second compound 1 µM, first compound 0.01 µM) was 102% and the viability, T/C [19] was 98.4%. It also gave a viability, T/C [20] of 101%, a viability, T/C [21] of 103% and a viability, T/C [22] of 78.7%. For the same compound, the viability, T/C (second compound 3.16 µM, first compound 0.00316 µM) was 99.6%, the viability, T/C (second compound 3.16 µM, first compound 0.01 µM) was 107% and the viability, T/C [25] was 98.8%. For the same compound, the viability, T/C [26] was 99.4%, the viability, T/C [27] was 89.5% and the viability, T/C [28] was 79.3%. For the same compound, the viability, T/C (second compound 10 µM, first compound 0.00316 µM) was 105%, the viability, T/C (second compound 10 µM, first compound 0.01 µM) was 109% and the viability, T/C [31] was 103%. For the same compound, the viability, T/C [32] was 105%, the viability, T/C [33] was 99.9% and the viability, T/C [34] was 71.2%.
CCCS(=O)(=O)Nc1ccc(F)c(C(=O)c2c[nH]c3ncc(-c4ccc(Cl)cc4)cc23)c1F + COC1C(OC(N)=O)C(O)C(Oc2ccc3c(O)c(NC(=O)c4ccc(O)c(CC=C(C)C)c4)c(=O)oc3c2C)OC1(C)C was tested, and the pIC50 (second compound 0.0316 µM) was < 5.00, the pIC50 (second compound 0.1 µM) was < 5.00 and the pIC50 (second compound 0.316 µM) was < 5.00. For the same compound, the pIC50 (second compound 1 µM) was < 5.00, the pIC50 (second compound 3.16 µM) was < 5.00 and the pIC50 (second compound 10 µM) was < 5.00. It also gave a viability, T/C [1] of 103%, a viability, T/C [2] of 109% and a viability, T/C [3] of 96.6%. It also gave a viability, T/C [4] of 95.8%, a viability, T/C [5] of 99.7% and a viability, T/C [6] of 70%. It also gave a viability, T/C [7] of 108%, a viability, T/C [8] of 107% and a viability, T/C [9] of 99.9%. For the same compound, the viability, T/C [10] was 102%, the viability, T/C [11] was 100% and the viability, T/C [12] was 67.9%. For the same compound, the viability, T/C [13] was 104%, the viability, T/C [14] was 106% and the viability, T/C [15] was 101%. For the same compound, the viability, T/C [16] was 92.9%, the viability, T/C [17] was 94.2% and the viability, T/C [18] was 65.8%. For the same compound, the viability, T/C [19] was 99.2%, the viability, T/C [20] was 104% and the viability, T/C [21] was 102%. It also gave a viability, T/C [22] of 103%, a viability, T/C [23] of 105% and a viability, T/C [24] of 68.4%. For the same compound, the viability, T/C [25] was 93.7%, the viability, T/C [26] was 103% and the viability, T/C [27] was 94.3%. For the same compound, the viability, T/C [28] was 95.4%, the viability, T/C [29] was 93.1% and the viability, T/C [30] was 67.9%. The viability, T/C [31] was 103%, the viability, T/C [32] was 95.2% and the viability, T/C [33] was 100%. It also gave a viability, T/C [34] of 99.2%, a viability, T/C [35] of 98.3% and a viability, T/C [36] of 71.4%.

Source: PubChem BioAssay AID1963841 (Molecular Pharmacology Branch, DTP, NCI, 2024)
